Source: patent US6333338A, “Bispiperidines as antithrombotic agents” (Laboratoire L. Lafon, priority 1998, dated 2001)
Where a name gives a salt, the structure may show the parent alone. Read-outs that look alike come from different tables or passages of the source.

Columns and labels:
guinea pig platelets [1] = experiment: In vitro inhibition of collagen-induced platelet aggregation, guinea pig platelets (PRP); format: cell-based, guinea pig (male Dunkin-Hartley); conditions: collagen 1 μg/ml, 3 minutes of contact at 37° C.
Method: (§1) A study of the inhibitory activity of the compounds of formula I on platelet aggregation was carried out in vitro, i.e. by direct contact of solutions of variable concentrations of the compounds with platelets freshly separated from a sample of total blood, taken under standardized conditions, from laboratory animals (guinea pigs) and from healthy human subjects who have not received any substances or drugs that might interfere with blood clotting. The anti-platelet-aggregating activity was also studied ex vivo/vitro, i.e. after administration of the substances claimed to guinea pigs to measure the intensity and duration of the anti-aggregating action induced by the fraction of the test product absorbed and circulating in the blood.
Blood is taken by intracardiac puncture from male Dunkin-Hartley guinea pigs (weighing about 330 g), at a rate of 4.5 ml per 0.5 ml of trisodium citrate (concentration of the aqueous solution: 1.55%) in order to prevent all trace of clotting. The platelet-rich plasma (PRP) is obtained by centrifuging the tubes of total blood for 15 minutes at 150 g.
The PRPs are collected as "pools". The platelets contained in these pools are counted using a Coulter ZM haematology automatic device: if necessary, a dilution is carried out in order for the platelet concentration in the plasma to be between 200,000 and 400,000 platelets/mm^3. Simultaneously, other samples of these pools serve to prepare the platelet-poor plasma (PPP) by centrifugation at 1500 g for 15 minutes.
The kinetic study of the platelet aggregation is carried out by adding a collagen solution (1 μg/ml) to a volume of PRP, using a Chrono-log Corporation aggregometer (490-D1 or 560 VS) which uses an optical detection of the appearance of the thrombus.
The measurements of the aggregation inhibition are carried out after 3 minutes of contact at 37° C. with agitation.

guinea pig platelets [2] = experiment: Ex vivo/vitro inhibition of platelet aggregation after administration via the gastric route in guinea pigs; set-up: species or system guinea pig (Dunkin-Hartley); conditions: fasted guinea pigs; for inhibition at 150 mg/kg / inhibition at 10 mg/kg: Cavia porcellus, Platelet
Method: as §1, with “blood. Evaluation of the anti-platelet-aggregating activity of the compounds is carried out in the same guinea pigs as those mentioned above (Dunkin-Hartley strain). […] The allocation of the treatments to the animals is random. The blood is taken and then treated under the same conditions as those described above for the in vitro studies. The results of the inhibition of the platelet aggregation obtained for each test concentration make it possible to calculate the IC50 concentration of each test product and the kinetics of the inhibitory effect and its duration of action.” for “blood.”

[3] = Cavia porcellus, Platelet, 0.05 h
[4] = 1 h before blood sampling, read-out: % of g.r. inhibition guinea pig ex vivo, d = 150 mg/kg, 1 h
[5] = 2 h before blood sampling, read-out: % of g.r. inhibition guinea pig ex vivo, d = 150 mg/kg, 2 h
[6] = 10 mg/kg, 1 h before blood sampling, read-out: % of g.r. inhibition guinea pig ex vivo, d = 10 mg/kg, 1 h
[7] = 10 mg/kg, 2 h before blood sampling, read-out: % of g.r. inhibition guinea pig ex vivo, d = 10 mg/kg, 2 h

SMILES | IC50 (guinea pig platelets [1]; [3]) | inhibition at 150 mg/kg (guinea pig platelets [2]; [4]) | inhibition at 150 mg/kg (guinea pig platelets [2]; [5]) | inhibition at 10 mg/kg (guinea pig platelets [2]; [6]) | inhibition at 10 mg/kg (guinea pig platelets [2]; [7]) | IC50 (guinea pig platelets [1]) | % of g.r. inhibition guinea pig ex vivo, d = 10 mg/kg, 1 h (guinea pig platelets [2]; 10 mg/kg, 1 h before blood sampling) | % of g.r. inhibition guinea pig ex vivo, d = 10 mg/kg, 2 h (guinea pig platelets [2]; 10 mg/kg, 2 h before blood sampling)
COc1ccc(C(CC(=O)O)NC(=O)CNC(=O)C(CCC2CCNCC2)CCC2CCNCC2)cc1 (stereo not drawn) [Example 7, 3-(4-Methoxyphenyl)-3-{[2-({4-(4-piperidyl)-2-[2-(4-piperidyl)ethyl]butanoyl}amino)acetyl]amino}propanoic Acid Dihydrochloride] | 10000 nM | -39% | 0% | – | – | – | – | –
O=C(O)COc1cccc(C(CC(=O)O)NC(=O)CNC(=O)C(CCC2CCNCC2)CCC2CCNCC2)c1 (stereo not drawn) [Example 9, 3-[(3-Carboxymethoxy)phenyl]-3-{[2-({4-(4-piperidyl)-2-[2-(4-piperidyl)ethyl]butanoyl}amino)acetyl]amino}-propanoic Acid Dihydrochloride] | 5000 nM | -53% | -5% | – | – | – | – | –
O=C(CNC(=O)C(CCC1CCNCC1)CCC1CCNCC1)NCC(NC(=O)c1ccc2c(c1)OCO2)C(=O)O (stereo not drawn) [Example 25, 2-[(1,3-Benzodioxol-5-ylcarbonyl)amino]-3-{[2-({4-(4-piperidyl)-2-[2-(4-piperidyl)ethyl]butanoyl}amino)acetyl]amino}propanoic Acid Dihydrochloride] | 29000 nM | -33% | -48% | – | – | – | – | –
CS(=O)(=O)c1ccc(S(=O)(=O)NC(CNC(=O)CNC(=O)C(CCC2CCNCC2)CCC2CCNCC2)C(=O)O)cc1 (stereo not drawn) [Example 32, 2-({[4-(Methylsulphonyl)phenyl]sulphonyl}amino)-3-{[2-({4-(4-piperidyl)-2-[2-(4-piperidyl)ethyl]butanoyl}amino)acetyl]amino}propanoic Acid Dihydrochloride] | 12000 nM | – | – | -8% | -8% | – | – | –
Cc1ccc(S(=O)(=O)NC(CNC(=O)CNC(=O)C(CCC2CCNCC2)CCC2CCNCC2)C(=O)O)cc1 (stereo not drawn) [Example 39, 2-{[(4-Methylphenyl)sulphonyl]amino}-3-{[2-({4-(4-piperidyl)-2-[2-(4-piperidyl)ethyl]butanoyl}amino)acetyl]amino}propanoic Acid Dihydrochloride] | 250 nM | – | – | -32% | -10% | – | – | –
Cc1cccc(S(=O)(=O)NC(CNC(=O)CNC(=O)C(CCC2CCNCC2)CCC2CCNCC2)C(=O)O)c1 (stereo not drawn) [Example 40, 2-{[(3-Methylphenyl)sulphonyl]amino}-3-{[2-({4-(4-piperidyl)-2-[2-(4-piperidyl)ethyl]butanoyl}amino)acetyl]amino}propanoic Acid Dihydrochloride] | 400 nM | – | – | -32% | -10% | – | – | –
O=C(CNC(=O)C(CCC1CCNCC1)CCC1CCNCC1)NCC(NS(=O)(=O)Cc1ccccc1)C(=O)O (stereo not drawn) [Example 41, 2-[(Benzylsulphonyl)amino]-3-{[2-({4-(4-piperidyl)-2-[2-(4-piperidyl)ethyl]butanoyl}amino)acetyl]amino}propanoic Acid Dihydrochloride] | 8600 nM | – | – | 13% | 1% | – | – | –
O=C(CNC(=O)C(CCC1CCNCC1)CCC1CCNCC1)NCC(NS(=O)(=O)/C=C/c1ccccc1)C(=O)O (stereo not drawn) [Example 42, 2-({[(E)-2-Phenylethenyl]sulphonyl}amino)-3-{[2-({4-(4-piperidyl)-2-[2-(4-piperidyl)ethyl]butanoyl}amino)acetyl]amino}propanoic Acid Dihydrochloride] | 420 nM | – | – | -14% | -26% | – | – | –
Cl.Cl.O=C(CNC(=O)C(CCC1CCNCC1)CCC1CCNCC1)NCC(NS(=O)(=O)CCc1ccccc1)C(=O)O (stereo not drawn) [Example 43, 2-[(2-Phenethylsulphonyl)amino]-3-{[2-({4-(4-piperidyl)-2-[2-(4-piperidyl)ethyl]butanoyl}amino)acetyl]amino}propanoic Acid Dihydrochloride] | – | – | – | – | – | 1200 nM | -15% | -4%
O=C(CNC(=O)C(CCC1CCNCC1)CCC1CCNCC1)NCC(NS(=O)(=O)c1cccc(C(F)(F)F)c1)C(=O)O (stereo not drawn) [Example 44, 2-({[3-(Trifluoromethyl)phenyl]sulphonyl}amino)-3-{[2-({4-(4-piperidyl)-2-[2-(4-piperidyl)ethyl]butanoyl}amino)acetyl]amino}propanoic Acid Dihydrochloride] | 510 nM | – | – | -22% | -35% | – | – | –
O=C(CNC(=O)C(CCC1CCNCC1)CCC1CCNCC1)NCC(NS(=O)(=O)c1cccc([N+](=O)[O-])c1)C(=O)O (stereo not drawn) [Example 45, 2-{[(3-Nitrophenyl)sulphonyl]amino}-3-{[2-({4-(4-piperidyl)-2-[2-(4-piperidyl)ethyl]butanoyl}amino)acetyl]amino}propanoic Acid Dihydrochloride] | 500 nM | – | – | -36% | -51% | – | – | –
COc1ccc(S(=O)(=O)NC(CNC(=O)CNC(=O)C(CCC2CCNCC2)CCC2CCNCC2)C(=O)O)cc1 (stereo not drawn) [Example 46, 2-{[(4-Methoxyphenyl)sulphonyl]amino}-3-{[2-({4-(4-piperidyl)-2-[2-(4-piperidyl)ethyl]butanoyl}amino)acetyl]amino}propanoic Acid Dihydrochloride] | 380 nM | – | – | -18% | -31% | – | – | –
O=C(CNC(=O)C(CCC1CCNCC1)CCC1CCNCC1)NCC(NS(=O)(=O)c1cccc2cccnc12)C(=O)O (stereo not drawn) [Example 47, 2-[(8-Quinolinylsulphonyl)amino]-3-{[2-({4-(4-piperidyl)-2-[2-(4-piperidyl)ethyl]butanoyl}amino)acetyl]amino}propanoic Acid Trihydrochloride] | 1900 nM | – | – | -4% | -17% | – | – | –
Cc1noc(C)c1S(=O)(=O)NC(CNC(=O)CNC(=O)C(CCC1CCNCC1)CCC1CCNCC1)C(=O)O (stereo not drawn) [Example 48, 2-{[(3,5-Dimethyl-4-isoxazolyl)sulphonyl]amino}-3-{[2-({4-(4-piperidyl)-2-[2-(4-piperidyl)ethyl]butanoyl}amino)acetyl]amino}propanoic Acid Dihydrochloride] | 420 nM | – | – | -61% | -15% | – | – | –
CC(=O)Nc1nc(C)c(S(=O)(=O)NC(CNC(=O)CNC(=O)C(CCC2CCNCC2)CCC2CCNCC2)C(=O)O)s1 (stereo not drawn) [Example 50, 2-({[2-(Acetylamino)-4-methyl-1,3-thiazol-5-yl]sulphonyl}amino)-3-{[2-({4-(4-piperidyl)-2-[2-(4-piperidyl)ethyl]butanoyl}amino)acetyl]amino}propanoic Acid Dihydrochloride] | 3300 nM | – | – | -22% | -39% | – | – | –
O=C(CNC(=O)C(CCC1CCNCC1)CCC1CCNCC1)NC[C@H](NS(=O)(=O)CCCCl)C(=O)O [Example 51, 2-{[(3-Chloropropyl)sulphonyl]amino}-3-{[2-({4-(4-piperidyl)-2-[2-(4-piperidyl)ethyl]butanoyl}amino)acetyl]amino}propanoic Acid Dihydrochloride] | 11000 nM | – | – | 4% | -21% | – | – | –
Cc1nc(C)c(S(=O)(=O)NC(CNC(=O)CNC(=O)C(CCC2CCNCC2)CCC2CCNCC2)C(=O)O)s1 (stereo not drawn) [Example 54, 2-{[(2,4-Dimethyl-1,3-thiazol-5-yl)sulphonyl]amino}-3-{[2-({4-(4-piperidyl)-2-[2-(4-piperidyl)ethyl]butanoyl}amino)acetyl]amino}propanoic Acid Dihydrochloride] | 1300 nM | – | – | -40% | -15% | – | – | –
